Data published in ChEMBL document CHEMBL3301361, “Experimental in vitro DMPK and physicochemical data on a set of publicly disclosed compounds”.
Non-standard residues stand in square brackets, D forms with d. Residues, ends and D or L forms follow the SMILES beside them. Dip = N[C@H](C(=O)O)C(c1ccccc1)c1ccccc1; Chg = N[C@H](C(=O)O)C1CCCCC1; NMeA = CN[C@@H](C)C(=O)O

Experiments:
physchem = conditions: octan-1-ol/water
in vitro = conditions: human, plasma

SMILES | logD (physchem; pH 7.4, LogD7.4) | fraction unbound at 5 h (in vitro; PPB) | logD (physchem; pH 7.4) | fraction unbound at 5 h (in vitro)
CCOc1ccccc1-c1ccc(-c2nc3ccncc3c(O)c2C#N)cc1 | 3 | 0.0007 |  | 
O=C1COc2ccccc2N1CCN1CCC(NCc2cc3c(cn2)OCCO3)CC1 |  |  | 1.04 | 0.253
Clc1ccc(C(c2ccccc2)N2CCNCC2)cc1 (stereo not given) [NORCHLORCYCLIZINE] | 1.94 | 0.0581 |  | 
CNc1c(Br)cnc2[nH]c(-c3ccc(S(C)(=O)=O)cc3)nc12 | 2.88 | 0.0477 |  | 
O=C(NO)C1COC(c2ccc(F)c(C(F)(F)F)c2)=N1 (stereo not given) | 1.53 | 0.0836 |  | 
COc1ccc(CC(=O)Nc2nc3ccccc3[nH]2)cc1 | 2.9 | 0.0374 |  | 
CC(=O)Nc1ccc(-c2ccnc(Nc3ccc(N4CCOCC4)cc3)n2)cc1 | 2.91 | 0.0676 |  | 
COc1ccc2ncc(=O)n(CCN3CC[C@H](NCc4ccc5c(n4)NC(=O)CO5)[C@H](O)C3)c2c1 | 0.39 | 0.137 |  | 
COc1cc(Nc2nc(N[C@@H](C)c3ncc(F)cn3)nc(N3CCOCC3)c2F)[nH]n1 | 2.64 | 0.253 |  | 
COc1ccc2ncc(=O)n(CCN3CC[C@H](NCc4cc5c(cn4)OCCO5)[C@@H](OC)C3)c2c1 | 1.25 | 0.166 |  | 
COc1ccc(-c2nc3c(NCCCNC(C)=O)c(Br)cnc3[nH]2)cc1 | 3.28 | 0.0262 |  | 
Cc1cc(Nc2nc(N[C@@H](C)c3ncc(F)cn3)nc(N3CCOCC3)c2Cl)n[nH]1 | 2.61 | 0.228 |  | 
CC(=O)Nc1ccc(Nc2ncc3cc(-c4ccncc4)ccc3n2)cc1 | 3.04 | 0.006 |  | 
Cc1ccc(NC(=O)c2ccc(Cl)c(C(F)(F)F)c2)cc1C(=O)Nc1cccnc1 | 2.83 | 0.0119 |  | 
CO[C@H]1CN(CCn2c(=O)ccc3ccc(C#N)cc32)CC[C@@H]1NCc1cc2c(cn1)OCCO2 | 1.05 | 0.16 |  | 
O=c1cc(O)oc2c1c(=O)n(-c1ccccc1)c1ccccc21 | 0.96 | 0.0183 |  | 
Cn1ncc2c(=O)[nH]c(-c3ccccc3)nc21 | 1.61 | 0.0676 |  | 
CN[C@@H](C)C(=O)N[C@H](C(=O)N[C@H]1CCCN(CCc2ccccc2OC)C1)C(C)(C)C | 1.61 | 0.258 |  | 
CC(=O)Nc1ccc2ccn(-c3cc(NC4CC4)n4ncc(C#N)c4n3)c2c1 |  |  | 3.29 | 0.0139
COc1ccc2c(c1)N(CCN1CCC(NCc3ccc4c(n3)NC(=O)CO4)CC1)C(=O)CC2 | 0.66 | 0.0418 |  | 
COc1ccc(-c2nc(N3CCOCC3)nc(O)c2C#N)cc1 | 0.2 | 0.0647 |  | 
O=C1[C@@H]2[C@@H]3CC[C@@H](C3)[C@@H]2C(=O)N1[C@H]1CC[C@H](C(=O)Nc2cccc3cccnc23)CC1 | 3.94 | 0.016 |  | 
N#Cc1cccc(C(=O)NC[C@@H](O)CN2CCC(Oc3ccc(Cl)c(Cl)c3)CC2)c1 | 3.48 | 0.0647 |  | 
c1ccc2[nH]c(CCCc3nc4ccccc4[nH]3)nc2c1 | 3.5 | 0.0031 |  | 
CS(=O)(=O)c1ccc([C@@H](O)[C@@H](CF)NC(=O)C(Cl)Cl)cc1 [FLORFENICOL] |  |  | 0.44 | 0.676

SMILES | logD (physchem; pH 7.4, LogD7.4) | fraction unbound at 5 h (in vitro; PPB) | logD (physchem; pH 7.4) | fraction unbound at 5 h (in vitro)
Cc1cccc(-c2nc3cc(Cl)ccc3[nH]2)n1 | 4.1 | 0.0111 |  | 
CNc1c(Br)cnc2nc(-c3ccc(OCCN4CCN(C)CC4)cc3)[nH]c12 | 2.91 | 0.0383 |  | 
Cc1[nH]c(/C=C2\C(=O)Nc3ccc(F)cc32)c(C)c1C(=O)NCCN(C)C | 1.75 | 0.173 |  | 
CC(=O)Nc1ccc2ccn(-c3cc(NCCCN4CCCC4)n4ncc(C#N)c4n3)c2c1 | 1.87 | 0.0676 |  | 
CNc1c(Br)cnc2nc(-c3ccc(OCCN4CCCCC4)cc3)[nH]c12 | 2.56 | 0.112 |  | 
COc1cc(Nc2cc(N3CCOCC3)nc(N[C@@H](C)c3ncc(F)cn3)n2)n[nH]1 | 2.18 | 0.276 |  | 
NC(=O)Nc1sc(-c2ccc(CN3CCCCC3)cc2)cc1C(N)=O | 1.75 | 0.334 |  | 
COCCNC(=O)c1ccc(Nc2ncc3cc(-c4ccncc4OC)ccc3n2)cc1 | 3.14 | 0.002 |  | 
CS(=O)(=O)c1ccc2c(c1)N(CCN1CCC(NCc3ccc4c(n3)NC(=O)CO4)CC1)C(=O)CO2 |  |  | -0.51 | 0.145
CN[C@@H](C)C(=O)N[C@H](C(=O)N(C)[C@H]1CCCN(CCc2ccccc2)C1)C1CCCCC1 | 2.34 | 0.266 |  | 
CNc1nc2ccccc2n1Cc1sc2c(c1C(=O)N1CC[C@@H](O)C1)c(=O)n(C)c(=O)n2CC(C)C | 1.61 | 0.319 |  | 
COc1ccc(OC)c(CNc2[nH]nc3ccnc(Oc4ccccc4)c23)c1 | 4.25 | 0.0142 |  | 
C[C@H](Nc1ccc2ncn(-c3cc(C4CC4)[nH]n3)c2n1)c1ncc(F)cn1 | 2.74 | 0.212 |  | 
Cc1cnc(Nc2cc(N3CCN(C)CC3)nc(N[C@@H](C)c3ccc(F)cn3)n2)s1 | 2.9 | 0.0467 |  | 
NC(=O)c1cnc(N[C@H]2CCCNC2)c2cc(-c3ccc(Cl)c(F)c3)sc12 | 2.76 | 0.0106 |  | 
CNC(=O)c1cc(C(=O)c2ccc(Cl)cc2)c(Br)[nH]1 | 3.1 | 0.0139 |  | 
CNc1c(Br)cnc2nc(-c3ccnc(N)c3)[nH]c12 | 2.83 | 0.0268 |  | 
Cc1cnc(Nc2cc(N3CCOCC3)nc(N[C@@H](C)c3ncc(F)cn3)n2)s1 | 2.68 | 0.0736 |  | 
CC(C)Cn1c(=O)n(C)c(=O)c2c(C(=O)N3CC[C@@H](O)C3)c(Cc3c[nH]c4ncccc34)sc21 | 1.71 | 0.314 |  | 
CNC(=O)c1[nH]cnc1C(=O)Nc1ccc(OC)cc1 | 2.2 | 0.134 |  | 
Nc1ncnc2nc(-c3ccc(N4CCOCC4)nc3)cc(-c3cccc(Br)c3)c12 | 3.2 | 0.0343 |  | 
Cc1cn([C@H]2CCCN(S(=O)(=O)c3ccc(C(N)=O)c(Oc4cccc(Cl)c4)c3)C2)c(=O)[nH]c1=O | 1.96 | 0.0358 |  | 
CCN(CC)CCNC(=O)c1c(C)[nH]c(/C=C2\C(=O)Nc3ccc(Cl)cc32)c1C [SU-11652] | 2.75 | 0.105 |  | 
O=C(c1cccc(Cc2n[nH]c(=O)c3ccccc23)c1)N1CCOCC1 | 1 | 0.415 |  | 
COc1ccc([C@]2(O)CC[C@H](N3CC[C@@H](NC(=O)CNC(=O)c4cccc(C(F)(F)F)c4)C3)CC2)cn1 | 1.72 | 0.212 |  | 

SMILES | logD (physchem; pH 7.4, LogD7.4) | fraction unbound at 5 h (in vitro; PPB) | logD (physchem; pH 7.4) | fraction unbound at 5 h (in vitro)
CC(=O)Nc1cccc(Nc2nc(NC3CC3)n3ncc(C#N)c3n2)c1 | 2.1 | 0.107 |  | 
CNc1c(C(N)=O)cnc2[nH]c(-c3ccc(OCCN4CCOCC4)cc3)nc12 | 2.14 | 0.212 |  | 
COc1ccc2ncc(=O)n(CCN3CCC(NCc4cc5c(cn4)OCCO5)CC3)c2n1 | 0.83 | 0.465 |  | 
O=C(O)c1cn(Cc2ccccc2)c2ccccc12 |  |  | 1.19 | 0.0191
CN(C)CCCN1c2ccccc2CCc2ccc(Cl)cc21 [CLOMIPRAMINE] | 3.36 | 0.0374 |  | 
Cc1cnc(Nc2ccc(N3CCN(C)CC3)cc2)nc1Nc1cccc(S(=O)(=O)NC(C)(C)C)c1 | 2.84 | 0.0752 |  | 
CC(=O)Nc1ccc2ccn(-c3cc(NCCCN(C)C)n4ncc(C#N)c4n3)c2c1 | 1.62 | 0.101 |  | 
COc1cc(OC)c2nc(C)c3c(c2c1)N(c1ccc(O)cc1)CC3 | 1.5 | 0.112 |  | 
CC(=O)Nc1ccc2ccn(-c3cc(NCCCCO)n4ncc(C#N)c4n3)c2c1 | 2.58 | 0.0409 |  | 
O=C1CN(C(=O)c2ccco2)C(c2ccccc2)c2cc(Cl)ccc2N1 (stereo not given) | 3 | 0.101 |  | 
CCOc1cc2ncc(C(N)=O)c(Nc3ccc(F)cc3F)c2cc1N1CCC(O)CC1 | 2.74 | 0.089 |  | 
N#Cc1cnn2c(NC3CC3)cc(-n3ccc4ccc(CO)cc43)nc12 | 3.09 | 0.0191 |  | 
CN[C@@H](C)C(=O)N[C@H](C(=O)N1CCC[C@H]1C(=O)N[C@H](C(=O)OC)C(c1ccccc1)c1ccccc1)C1CCCCC1 (H-[NMeA][Chg]P[Dip]-OMe) | 2.42 | 0.176 |  | 
Cc1cc(Nc2nc(N[C@@H](C)c3ncc(F)cn3)ncc2F)n[nH]1 | 1.79 | 0.471 |  | 
C[C@H](CO)Nc1nc(SCc2cccc(F)c2F)nc2[nH]c(N)nc12 | 3.22 | 0.0229 |  | 
Cc1nc(C(=O)[C@H](C)Oc2ccc(SCCCCCc3ccccc3)cc2)sc1CCCC(=O)O | 2.03 | 0.007 |  | 
COc1nccnc1NS(=O)(=O)c1ccc(N)cc1 | -0.65 | 0.232 |  | 
COc1ccc2ccc(=O)n(CCN3CCC(NCc4cc5c(cn4)OCCO5)CC3)c2n1 | 1.16 | 0.314 |  | 
CC(C)CCOc1ccc(N)cc1 | 2.67 | 0.0676 |  | 
CN[C@@H](C)C(=O)N[C@H](C(=O)N[C@H]1CCCN(CCc2ccccc2)C1)C1CCCCC1 | 1.65 | 0.329 |  | 
Cc1cc(Nc2nc(N[C@@H](C)c3ccc(F)cn3)c(C#N)cc2F)n[nH]1 | 3.11 | 0.0532 |  | 
C[C@@H](NC1=CC(=O)CNC1)c1ccc(Nc2ncc3cc(-c4ccncc4)ccc3n2)cc1 | 2.49 | 0.0358 |  | 
CCOc1cc2nnc(C(N)=O)c(Nc3cc(C)ccc3F)c2cc1N1CCN(C)CC1 | 3.02 | 0.107 |  | 
Cc1ncc(-c2nc(Nc3ccc(C(=O)N4CC[C@H](N(C)C)C4)cc3)ncc2F)n1C(C)C | 2.16 | 0.258 |  | 
CO[C@@H]1CN(CCn2c(=O)ccc3ccc(C#N)cc32)CC[C@H]1NCc1ccc2c(n1)NC(=O)CO2 | 0.81 | 0.276 |  | 
